Key:
[1] = In vitro metabolic stability, dog liver microsomes; format: in vitro ADME; settings: pooled liver microsomes, NADPH, 37 °C, 0 and 30 min
SK1 = SK1 (Homo sapiens, UniProt Q9NYA1); assay: SK1 activity assay (Adapta screening system)
[2] = Serum analysis of tumor xenograft mice; format: in vivo; settings: serum biochemical assays; 5 mg/kg i.p., 29 days
Procedure: Five-week-old BALB/c-nu/nu male mice were purchased from Orient Bio Inc. (Seongnam, Gyeonggi-do, Korea). The mice were housed in a climate-controlled room (22 ± 2 °C, 50 ± 10% relative humidity) and specific pathogen-free conditions with a 12 h light/dark cycle and adapted for a week with free access to food and water. Cages, bedding, and drinking water were autoclaved and changed regularly. The cancer cell suspension {3 × 10^7 cells/ 150 μL phosphate-buffered saline (PBS)} was inoculated subcutaneously into the right flank. Measurable tumors were found 7–8 days after cell inoculation, and tumors grew in 90% of the injection site two weeks later. The mice were randomly divided into test groups (12 mice per group) when the tumor volume reached 100 mm^2 about two weeks after the inoculation (experimental day 0). The control group (vehicle-treated group) and Compound 4 (5 mg/kg) were administered i.p. 3 times a week. The formulation of Compound 4 was prepared in a mixture of 10% DMSO + 90% PBS. The tumor growth rate and body weights in each of the two groups were measured every three days using a Vernier caliper and a digital weighing balance, respectively. Tumor volume was calculated as l × b^2 × 0.52, where l is the length and b is the width. […]
Blood samples were centrifuged at 3000× g for 20 min, and levels of ALT, AST, ALP, sphingosine, ceramide, and S1P were measured using a kit.

A549 and H1299 cells = assay: Cell proliferation / viability assay (EZ-CYTOX)
A549 cells [3] = assay: Colony formation assay; format: cell-based, human; settings: 5 and 10 μM
Procedure: A549 cells (1 × 10^3 cells/well) were seeded into six-well plates and then each compound was treated at 5 and 10 μM for 12 h. The medium was changed every two days, and the cells were cultured in a fresh medium for 10 days. The obtained colonies were fixed with 25% glutaraldehyde for 20 min and then stained with 0.1% crystal violet for 15 min.

A549 cells [4] = assay: Western blotting of apoptosis-related proteins; format: cell-based, human; settings: 5 and 10 μM, 24 h
Procedure: (§1) Western blotting measured changes in apoptosis-related proteins (PARP, BAX, BCL-2, Caspase-3). A549 cells (1 × 10^6 cells per well in 6-well plates) were incubated for 24 h. Cells were treated with concentrations of the compounds and incubated for 24 h. Then, cells were dissolved on ice for two hours with a lysis buffer containing a mixture of protease and phosphatase inhibitors. The lysate was centrifuged at 12,000× g for 15 min at 4 °C, and the supernatant was collected. Protein concentrations were measured using a bicinchoninic acid protein assay kit. Total protein was separated by 8–10% sodium dodecyl sulfate–polyacrylamide gel electrophoresis (SDS-PAGE) and transferred onto polyvinylidene fluoride (PVDF) membranes. After being blocked with 5% skim milk, membranes were probed overnight at 4 °C with primary antibodies against SK1, SK2, PARP, BAX, Bcl-2, Caspase-3, and β-actin. Then, the membranes were incubated with subsequent secondary antibodies at room temperature. Then, the protein expressions were measured by Amersham Imager 680 (GE Healthcare, Leiden, WZ, The Netherlands).

A549 cells [5] = assay: Mitochondrial membrane potential measurement (JC-10); format: cell-based, human; settings: 10 μM, 24 h
Procedure: To access the mechanism of cell death, Mitochondrial Membrane Potential (MMP) was performed using JC-10 cationic dye. […] Cells were collected, and 20 μM JC-10 dye prepared in HBSS solution (0.14 M NaCl, 0.005 M KCl, 0.001 M CaCl2, 0.005 M MgSO4-7H2O, 0.0004 M MgSO4-6H2O, 0.0003 M Na2HPO4-2H2O, 0.0004 M KH2PO4, 0.006 M D-glucose, 0.004 M NaHCO3, 0.002 M HEPES, and 0.02% Pluronic® F-127) was added to the cell for 30 min and mixed. The samples were protected from light and measured by using the MACS Quant Analyzer 10 Flow cytometer.

A549 cells [6] = assay: Annexin V-FITC apoptosis analysis; format: cell-based, human; settings: 24 h
Procedure: A549 cells (1 × 10^5 cells) were seeded in into a 12-well plate. […] After harvesting the cells, the binding buffer was added and then incubated with annexin-V-FITC and PI at room temperature for 15 min. The stained cells were analyzed with MACS Quant Analyzer 10 Flow Cytometer (Miltenyi Biotec, Bergisch Gladbach, Germany) within 1 h.

[7] = system: A549 cell-induced tumor xenograft; assay: A549 tumor xenograft in BALB/c nude mice; format: in vivo; settings: vs control group
Procedure: Five-week-old BALB/c-nu/nu male mice were purchased from Orient Bio Inc. (Seongnam, Gyeonggi-do, Korea). The mice were housed in a climate-controlled room (22 ± 2 °C, 50 ± 10% relative humidity) and specific pathogen-free conditions with a 12 h light/dark cycle and adapted for a week with free access to food and water. Cages, bedding, and drinking water were autoclaved and changed regularly. The cancer cell suspension {3 × 10^7 cells/ 150 μL phosphate-buffered saline (PBS)} was inoculated subcutaneously into the right flank. Measurable tumors were found 7–8 days after cell inoculation, and tumors grew in 90% of the injection site two weeks later. The mice were randomly divided into test groups (12 mice per group) when the tumor volume reached 100 mm^2 about two weeks after the inoculation (experimental day 0). The control group (vehicle-treated group) and Compound 4 (5 mg/kg) were administered i.p. 3 times a week. The formulation of Compound 4 was prepared in a mixture of 10% DMSO + 90% PBS. The tumor growth rate and body weights in each of the two groups were measured every three days using a Vernier caliper and a digital weighing balance, respectively. Tumor volume was calculated as l × b^2 × 0.52, where l is the length and b is the width. Four weeks after treatment, blood samples were drawn from the orbital sinus under anesthesia, the mice were sacrificed by cervical dislocation, and the tumors were dissected for further examination.
The paraffin-embedded tumor specimens were deparaffinized with xylene and a series of different alcohol concentrations, rehydrated, and antigen retrieval was carried out with sodium citrate buffer (0.05 M with PH 6). After blocking with 5% BSA, the slides were incubated overnight at 4 °C with KI67 (Cell Signaling Technology, Danvers, MA, USA), Caspase-3 (Abcam, Cambridge, UK), and S1P antibodies (Echelon Biosciences inc, Salt Lake City, UT). The slides were washed with 1× TBST (TBST with PH 8.4) plus 0.5 percent Triton X-100 (Sigma-Aldrich, St. Louis, MO, USA), then secondary antibodies were added in 1:500 ratios (Invitrogen-Alexa Fluor plus 555, 488, and Alexa FluorTM546), and nuclear staining was performed with Hoechst (Invitrogen, Carlsbad, CA, USA), mounted with a flurosave reagent (EMD Millipore Crop, Billerica, MA, USA). Stain sections were observed and photographed using a confocal microscope (Carl-Zeiss-LSM710NLO and LSM780NLO), and results were analyzed using the Carl-Zeiss ZEN2 software and quantification was done by using the ImageJ software, respectively.

A549 cells [8] = assay: SK1 and SK2 protein (Western blotting) and mRNA (qRT-PCR) levels; format: cell-based, human; settings: 5 and 10 μM, 24 h
Procedure: as §1
RNAs were isolated using the Trizol/chloroform reagent (Invitrogen, Waltham, MA, USA). […] For quantitative analysis of various genes, qRT-PCR was performed using the Bio-Rad CFX384 Touch Real-time PCR detection system (Bio-Rad, Hercules, CA, USA) with SYBR Premix Ex Taq (Takara Bio, Shiga, Japan) for 40 cycles.

[9] = immunohistochemistry, 5 mg/kg i.p.

Sequence of SK1 (Q9NYA1 whole entry): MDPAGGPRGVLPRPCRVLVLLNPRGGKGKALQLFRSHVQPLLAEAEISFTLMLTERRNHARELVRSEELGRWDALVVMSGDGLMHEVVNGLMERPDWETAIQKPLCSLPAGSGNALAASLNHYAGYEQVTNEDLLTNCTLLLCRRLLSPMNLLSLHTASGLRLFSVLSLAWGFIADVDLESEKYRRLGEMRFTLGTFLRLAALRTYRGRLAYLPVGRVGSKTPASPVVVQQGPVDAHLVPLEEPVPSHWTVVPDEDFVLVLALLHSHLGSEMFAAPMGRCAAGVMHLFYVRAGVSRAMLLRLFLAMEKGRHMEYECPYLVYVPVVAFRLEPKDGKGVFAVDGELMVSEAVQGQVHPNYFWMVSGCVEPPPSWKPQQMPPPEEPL

Cc1cc(CN(Cc2cc(C)cc(CS(=O)(=O)c3ccccc3)c2)c2ccc(CCN3CCC(CO)CC3)cc2)cc(CS(=O)(=O)c2ccccc2)c1 [Compound 4, (1-(4-(Bis(3-methyl-5-((phenylsulfonyl)methyl)benzyl)amino)phenethyl)piperidin-4-yl)methanol]
MS DLM [1]: 26.1
selectivity for SK1 (SK1; SK1 vs SK2, compared to PF-543): lower selectivity for SK1 compared to PF-543
inhibition at 10 µM (SK1; read-out: SK1 inhibitory efficacy): 31%
hepatotoxicity [2]: does not appear to cause hepatotoxicity
cytotoxic effects compared with FTY720 (A549 and H1299 cells; 20 and 40 μM, A549 and H1299 cells): cytotoxic effects similar to those of FTY720
IC50 (A549 and H1299 cells; Homo sapiens, 24 h, read-out: IC50 (cytotoxic effect)): 7.75 µM
colony formation (A549 cells [3]): reduce colony formation in a concentration-dependent manner
levels of PARP, Caspase-3 and cleaved PARP (A549 cells [4]): levels of PARP and Caspase-3 were decreased and cleavage of PARP was increased
change in mitochondrial membrane potential (MMP), JC-10 (A549 cells [5]): significantly increased compared to that after treatment with PF-543
apoptotic effect (annexin-V) (A549 cells [6]; 5 μM): significant effect
apoptotic effect (annexin-V) (A549 cells [6]; 10 μM): significantly higher apoptotic effect compared to PF-543
tumor volume ([7]; 5 mg/kg i.p. 3 times a week, 29 days): statistically significant inhibitory effect on the tumor volume
tumor weight ([7]; 5 mg/kg i.p. 3 times a week, day 29): significant decrease in the tumor weight
weight of animals ([7]; 5 mg/kg i.p. 3 times a week): no difference in the weight
KI67 level in tumor sections (proliferation marker) [7, 9]: decrease in the level of KI67
S1P levels in the tumor section [7, 9]: decreased
caspase-3 level in tumor sections (apoptosis marker) [7, 9]: increased
expression of proteins and mRNAs of SK1 and SK2 (A549 cells [8]): did not affect
